Measured values as given in PMC8623395, “Virtual Screening and Molecular Dynamics Simulation Study of Influenza Polymerase PB2 Inhibitors” (Molecules, 2021).

Columns and labels:
H3N2 influenza virus = tested on: H3N2 influenza virus; parameters: method as in PMID 24134208; conditions: read-out: IC50 for the cytopathic effect (CPE) of H3N2 influenza virus; cited from earlier work
[1] = tested on: influenza A/Puerto Rico/8/1934 (H1N1); experiment: CPE inhibition assay in MDCK cells, H1N1; type: cell-based; conditions: Influenza A virus, 72 h
in vitro = conditions: dog
HK/68 (H3N2) = experiment: CPE inhibition assay in MDCK cells, H3N2; type: cell-based; conditions: Influenza A virus, 72 h
[2] = tested on: influenza virus polymerase PB2 subunit; parameters: method as in PMID 30102858; conditions: cited from earlier work
[3] = tested on: influenza virus ribonucleoprotein (RNP); parameters: method as in PMID 12755627; conditions: cited from earlier work
A/WSN/33 = tested on: A/WSN/33; parameters: method as in PMID 20178582; conditions: cited from earlier work

For Cc1nc([O-])c2c(n1)n(CC(=O)c1ccc(O)c(C(N)=O)c1)c[n+]2C [i], the IC50 (H3N2 influenza virus) is listed as 7.5 µM.

COc1c2oc3c(OC)ccc(C(=O)N[C@@H](Cc4ccccc4)C(=O)O)c3nc-2cc(N)c1=O [Str7374] gave an IC50 [1] of 31.9 ± 8.15 µM, a CC50 at 72 h (in vitro) greater than 100 µM and an IC50 (HK/68 (H3N2)) of 55.4 ± 27 µM.

In the case of O=c1oc2cc(O)cc(O)c2c2ccccc12 [Compound D715-2441, 1,3-Dihydroxy-6H-benzo[c]chromen-6-one], the “PB2 cap and m7 GTP binding” value [2] is listed as “prevent PB2 cap and m7 GTP binding in a dose-dependent manner”.

Molecule O=C(O)[C@H]1C2CCC(CC2)[C@@H]1Nc1nc(-c2c[nH]c3ncc(F)cc23)ncc1F [VX-787, reference compound] has an IC50 [1] of 0.004 ± 0.001 µM, a CC50 (in vitro) greater than 100 µM and an IC50 (HK/68 (H3N2)) of 0.09 ± 0.02 µM.

For C[n+]1cn(CCCCC(=O)O)c2nc(CCCCCC(=O)O)nc([O-])c21 [g], the IC50 (H3N2 influenza virus) is given as 5.3 µM.

In the case of Nc1nc2c(c(=O)[nH]1)[n+](Cc1ccccc1)cn2CCCCO [RO0794238], the IC50 [3] is given as 45 µM.

For O=C(O)c1cc2ccccc2c(Cc2c(O)c(C(=O)O)cc3ccccc23)c1O [Str3107], the IC50 [1] was 18.2 ± 4.96 µM, the CC50 (in vitro) was greater than 100 µM and the IC50 (HK/68 (H3N2)) was 45.7 ± 3.01 µM.

In the case of O=C(O)c1cc(-c2ccc(Br)cc2)nc2ccc(Cl)cc12 [CSV0C019002], the EC50 (A/WSN/33) is given as 4.27 µM.

O=C(O)c1cccc([C@@H](c2ccc(O)c(C(=O)O)c2)C(Cl)(Cl)Cl)c1 [Str5776] showed an IC50 [1] of 3.55 ± 1.23 µM, a CC50 at 72 h (in vitro) greater than 100 µM and an IC50 (HK/68 (H3N2)) of 2.51 ± 0.12 µM.

For CCCCOc1ccc(-c2csc(Nc3ccc(CCC(=O)O)cc3)n2)cc1Cl [Str1916], the IC50 [1] was 4.82 ± 3.03 µM, the CC50 at 72 h (in vitro) was greater than 100 µM and the IC50 (HK/68 (H3N2)) was 17 ± 7.94 µM.

Work on CCC(CC)O[C@@H]1C=C(C(=O)O)C[C@H](N)[C@H]1NC(C)=O [OC, Oseltamivir carboxylate, reference compound] yielded an IC50 [1] of 0.95 µM, a CC50 at 72 h (in vitro) greater than 100 µM and an IC50 (HK/68 (H3N2)) of 0.01 µM.

For O=C(CCCCC(=O)c1ccccc1C(=O)O)c1ccccc1 [Str6318], the IC50 [1] was 28.6 ± 9.46 µM, the CC50 at 72 h (in vitro) was greater than 100 µM and the IC50 (HK/68 (H3N2)) was 11.2 ± 3.39 µM.

O=C(Nc1nc(-c2ccc(O)cc2)c(CCc2ccccc2)s1)c1cc(O)c(O)c(O)c1 [Str1614] showed an IC50 [1] of 26.3 ± 8.69 µM, a CC50 at 72 h (in vitro) greater than 100 µM and an IC50 (HK/68 (H3N2)) of 19.6 ± 0.93 µM.

In the case of Cc1nc([O-])c2c(n1)n(CC(=O)c1ccc(O)c(C(=O)O)c1)c[n+]2C [h], the IC50 (H3N2 influenza virus) is listed as 0.6 µM.
